Read-outs that look alike come from different tables or passages of the source.
How the values were obtained:
[1] = Peroxynitrite scavenging assay; settings: 20 µM; SIN-1 as generator; DHR123 probe
Procedure: The effects of the BABT derivatives on peroxynitrite scavenging activities were also examined using SIN-1 as an RNS generator and dihydrorhodamine (DHR123) as an ROS indicator. DHR123 was converted to fluorescent rhodamine 123 by peroxynitrite generated by SIN-1. Therefore, the peroxynitrite scavenging activities of 1–14 were assessed by measuring the fluorescence of rhodamine 123. BABT derivatives and penicillamine, the positive control, were used at a concentration of 20 µM.
The peroxynitrite scavenging activities of the BABT derivatives were assessed using the method developed by Kooy, involving the monitoring of highly fluorescent rhodamine 123, which was rapidly produced from non-fluorescent DHR123 in the presence of peroxynitrite. Rhodamine buffer (pH 7.4) was composed of 50 mM sodium phosphate dibasic, 50 mM sodium phosphate monobasic, 90 mM sodium chloride, 5 mM potassium chloride, and 100 µM DTPA. A 10 µL aliquot of BABT derivatives or PCA (final concentration: 20 µM) was seeded in a black 96-well plate. Then, 10 µL of SIN-1 (10 µM) was added to induce radical species generation and mixed with 180 µL of rhodamine buffer. Fluorescence intensity was measured at emission and excitation wavelengths of 535 and 485 nm, respectively, using a fluorescence microplate reader (Berthold Technologies GmbH & Co.). PCA was used as the positive control.

mushroom tyrosinase = experiment: Mushroom tyrosinase inhibition assay; type: biochemical; settings: for IC50: mean ± SEM of three experiments
Procedure: As mushroom tyrosinase is commercially available and relatively cheap, it is used as a tool for the identification of novel tyrosinase inhibitors. Here, we examined the tyrosinase inhibitory activities of the 14 BABT derivatives against mushroom tyrosinase in the presence of L-tyrosine or L-dopa as substrates.
Mushroom tyrosinase inhibitory activities of BABT derivatives were determined as described previously, with minor modifications. L-Tyrosine and L-dopa were used as substrates to evaluate the enzyme activity. […] Assay mixtures were incubated at 37 °C for 30 min, and dopachrome amounts synthesized were determined by measuring the optical density of each well at 475 nm using a microplate reader (VersaMax; Molecular Devices, Sunnyvale, CA, USA).

[2] = biological target: T1, B16F10 cellular tyrosinase (Mus musculus, UniProt P11344); experiment: Cellular anti-tyrosinase activity assay; type: cell-based, murine; settings: α-MSH plus IBMX stimulated B16F10 cells, 72 h
T1 construct: host or cells: B16F10 murine melanoma cells
T1 sequence (P11344 19-533): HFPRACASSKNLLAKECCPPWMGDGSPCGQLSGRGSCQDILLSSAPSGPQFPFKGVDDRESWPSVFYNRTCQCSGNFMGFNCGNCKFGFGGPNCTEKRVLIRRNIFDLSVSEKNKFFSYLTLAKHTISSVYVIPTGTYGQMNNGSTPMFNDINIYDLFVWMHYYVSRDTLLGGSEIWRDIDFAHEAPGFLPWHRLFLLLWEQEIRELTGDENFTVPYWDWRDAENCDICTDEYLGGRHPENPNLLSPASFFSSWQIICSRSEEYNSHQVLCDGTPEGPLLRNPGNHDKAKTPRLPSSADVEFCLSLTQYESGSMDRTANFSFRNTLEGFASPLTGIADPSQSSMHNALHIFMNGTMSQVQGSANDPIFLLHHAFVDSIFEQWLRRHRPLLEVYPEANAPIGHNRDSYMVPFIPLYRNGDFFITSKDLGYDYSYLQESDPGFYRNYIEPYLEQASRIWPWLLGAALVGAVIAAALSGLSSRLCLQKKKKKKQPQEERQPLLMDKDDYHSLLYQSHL
Procedure: Briefly, B16F10 cells were seeded at 1 × 10^5 cells/well in a 6-well plate and allowed to adhere to well bottoms for 24 h. […] Then, a stimulator (0.5 µM α-MSH plus 200 µM IBMX) was applied to increase the cellular tyrosinase activity, and the cells were cultured for 72 h under the conditions used for cell cultures. Cultured cells were washed twice with PBS and exposed to an aliquot (100 µL) of the lysis buffer solution containing 20% Triton X-100 (5 µL), 50 mM phosphate buffer (pH 6.5, 90 µL), and 2 mM phenylmethylsulfonyl fluoride (5 µL) to lyse the cultured cells for 30 min at −80 °C. After defrosting, the cell lysates were transferred to microcentrifuge tubes and centrifuged for 30 min at 4 °C and 12,000 rpm, and the supernatants (80 µL) in each well were mixed with 20 µL L-dopa (2 mg/mL) and incubated at 37 °C for 10 min. The absorbance of dopachrome was measured at 475 nm using a microplate reader (VersaMax; Molecular Devices).

[3] = test system: microphthalmia-associated transcription factor (MITF); experiment: Western blotting of MITF protein expression; type: cell-based, murine
Procedure: We investigated whether, in addition to the direct inhibition of tyrosinase, another inhibitory mechanism of melanogenesis by derivative 8 may be related to the expression of proteins involved in melanogenesis. For the Western blotting experiment, B16F10 cells were treated with α-MSH (1 µM) plus IBMX (200 µM), leading to a 1.7- and 4.9-fold increase in expression levels of melanogenesis-associated proteins tyrosinase and MITF, compared to those in the untreated control (100%) (Figure 13).
B16F10 cells were seeded in a 60 mm dish at a density of 5 × 10^5 cells/mL for 24 h, washed with cold PBS, and harvested. Cytosolic and nuclear fractions of cell lysates were extracted using lysis buffer, as described previously. Protein concentrations in the cell lysates were estimated using the BCA protein assay (Pierce, Rockford, IL, USA). […] The membranes were washed and protein bands detected using the SuperSignal West Pico Chemiluminescence assay kit (Advansta, San Jose, CA, USA) and the Davinch–Chem program (Davinch-K, Seoul, Republic of Korea). Immunoblotting data were quantified using CS Analyzer 3.2 (Densitograph) image analysis software (http://www.attokorea.co.kr, accessed on 21 November 2022).

B16F10 cells = experiment: Cell viability (EZ-Cytox assay); type: cell-based, murine; settings: 0, 1, 2, 5, 10, 20 µM, 72 h
Procedure: Before these experiments were performed, the influence of these derivatives on cytotoxicity in B16F10 cells was examined to determine their optimal concentration range for B16F10 cell experiments. The cytotoxicity of derivatives 7 and 8 at six concentrations (0, 1, 2, 5, 10, and 20 µM) was assessed using the EZ-Cytox assay.
Cytotoxicity assays in B16F10 cells were performed using the EZ-Cytox solution (EZ-3000, DoGenBio, Seoul, Republic of Korea). Briefly, B16F10 cells were seeded at a density of 1 × 10^4 cells per well and cultured at 37 °C in a 5% CO2 atmosphere for 24 h. […] Then, the EZ-Cytox solution (10 μL aliquot) was added to each well. After 2 h of incubation at 37 °C, the optical density of each well was measured at 450 nm using a microplate reader (VersaMax; Molecular Devices).

SMILES: O=C1N=C(NCc2ccccc2)S/C1=C\c1ccc(O)cc1O [Compound 8, (Z)-2-(benzylamino)-5-(2,4-dihydroxybenzylidene)thiazol-4(5H)-one]
- peroxynitrite scavenging activity (in words) [1]: scavenged peroxynitrite more potently than did penicillamine
- fold higher IC50 value with L-dopa than with L-tyrosine (mushroom tyrosinase; L-dopa versus L-tyrosine as substrate): 4 fold
- IC50 (mushroom tyrosinase; substrate L-dopa, read-out: IC50 (µM) L-Dopa): 1.04 ± 0.05 µM
- fold more potent than kojic acid (mushroom tyrosinase; substrate L-tyrosine): 106 fold
- IC50 (mushroom tyrosinase; substrate L-tyrosine, read-out: IC50 (µM) L-Tyrosine): 0.27 ± 0.03 µM
- inhibition of cellular tyrosinase activity (in words) ([2]; 5 µM): more than that by kojic acid at 20 µM
- cellular tyrosinase activity compared to untreated control ([2]; 20 µM): 1.7 fold
- relative expression level of MITF protein ([3]; 10 µM, α-MSH plus IBMX treated B16F10 cells): lowered the protein expression to the same or lower control levels
- relative expression level of MITF protein ([3]; 5, 10 and 20 µM, α-MSH (1 µM) plus IBMX (200 µM) treated B16F10 cells): significantly reduced the relative expression levels of tyrosinase and MITF in a dose-dependent manner
- cytotoxicity (B16F10 cells): no cytotoxicity until 72 h at all tested concentrations
